*1 amine or outer side, *2 acyl side, *3 side chain or, on linkers, in order; H or OH if unused. Where a SMILES comes first, the peptide text is derived from it. Side-chain parts run from the residue outwards. The star is where a group is joined. C20 diacid = O=C(O)CCCCCCCCCCCCCCCCCCC(=O)*; C18 diacid = O=C(O)CCCCCCCCCCCCCCCCC(=O)*; γGlu = O=C(O)[C@H](CCC(=O)[*:2])N[*:1]; Trx = NC[C@H]1CC[C@H](C(=O)O)CC1; AEEA = NCCOCCOCC(=O)O
Test: in vivo
Settings: Göttingen, minipig, iv
Method: (§1) The mini-pigs had two central venous catheters inserted which were used for intra venous (i.v.) dosing and bloodsampling. Compound was dissolved in 50 mM K2HPO4, 0.05% tween 80, pH=8.0 to a concentration of 180 nmol/ml. The pigs were dosed with 6 nmol compound/kg body weight. […] The blood samples were collected into test tubes containing EDTA buffer for stabilization and kept on ice for max. 20 minutes before centrifugation. The centrifugation procedure to separate plasma was; 4° C., 3000 rpm for 10 minutes. Plasma were collected and immediately transferred to Micronic tubes stored at −20° C. until assayed.
An additional mini-pig PK assay was used for measuring PK of the compounds of the invention. […] The animals had two central venous catheters inserted which were used for intra venous (i.v.) dosing and blood sampling. Compounds were dissolved in 10 mM Na2HPO4, 150 mM NaCl, 0.01% tween 80, pH=4.0 to concentrations in the range of 40 nmol/ml to 200 nmol/ml. The mini-pigs were dosed i.v. with 10 nmol compound/kg body weight, occasionally other doses such as 4 nmol/kg, 30 nmol/kg or 50 nmol/kg were administered. Each compound was dosed to 3 or 4 mini-pigs, and two compounds may be given simultaneously to the same animal. Blood were sampled pre-dose and 12 times during the first 10 hours post-dose. Blood were furthermore sampled once daily until 13 days post dosing. The blood samples were collected into test tubes containing EDTA buffer, trasylol and Val-Pyr for stabilization and kept on ice for max. 20 minutes. Samples were centrifuged at 4° C., 2000G for 10 minutes to separate plasma. Plasma were collected and immediately transferred to Micronic tubes stored at −20° C. until assayed.
Plasma samples were analysed by LC-MS on an LTQ-Orbitrap (ThermoFisher Scientific, Bremen) to which Accela HPLC pumps and an autosampler were connected (both from ThermoFisher). […] HPLC was performed on a Jupiter Proteo column (4μ) 90A (50×2.0 mm ID). […] The flow rate was 0.3 ml/min. For analysis of plasma samples, 30 μl plasma was precipitated with 90 μl ethanol. […] The heptane phase was removed after 5 min and the remaining solution was analysed by LC-MS as described above. For construction of plasma standards, compound was spiked to plasma (minipig) at the following concentrations: 1 nM, 2 nM, 5 nM, 10 nM, 20 nM, 50 nM, 100 nM, 200 nM. The plasma standards were treated as the samples. The lower limit of quantification was estimated to 2 nM.
Non-compartmental analysis (NCA): Plasma concentration-time profiles were analyzed by non-compartmental pharmacokinetics analysis (NCA) using WinNonlin Professional 5.0 (Pharsight Inc., Mountain View, Calif., USA). NCA was performed using the individual plasma concentration-time profiles from each animal.
For determination of plasma concentration of the PYY and PP peptide derivative or analogues thereof the following Methods 1-4 were used.
as §1, with “bloodsampling. The compound” for “bloodsampling. Compound”, “to an appropriate” for “to a”, “concentration (e.g. 25-500 nmol/mL).” for “concentration of 180 nmol/ml.”, “dosed intravenously (i.v.) or subcutaneously (s.c.)” for “dosed”, “with between 1 and 30” for “with 6”, “buffer (with Aprotinin 15000 KIE/mL and Val-Pyr 0.30 mM)” for “buffer”
An additional mini-pig PK assay was used for measuring PK of the compounds of the invention. […] The animals had two central venous catheters inserted which were used for intra venous (i.v.) dosing and blood sampling.

CC[C@H](C)[C@H](NC(=O)[C@H](Cc1ccc(O)cc1)NC(=O)[C@H](CCCNC(=N)N)NC(=O)[C@H](CCCNC(=N)N)NC(=O)[C@H](CC(C)C)NC(=O)[C@H](CC(=O)O)NC(=O)[C@H](C)NC(=O)[C@H](C)NC(=O)[C@H](Cc1ccc(O)cc1)NC(=O)[C@H](CCC(N)=O)NC(=O)[C@H](C)NC(=O)[C@H](CCSC)NC(=O)[C@H](CCC(N)=O)NC(=O)[C@H](CCC(=O)O)NC(=O)[C@@H]1CCCN1C(=O)[C@H](CCCCNC(=O)COCCOCCNC(=O)COCCOCCNC(=O)CC[C@H](NC(=O)CCCCCCCCCCCCCCCCC(=O)O)C(=O)O)NC(=O)[C@H](C)NC(=O)[C@H](CC(N)=O)NC(=O)[C@H](CC(=O)O)NC(=O)CNC(=O)[C@@H]1CCCN1C(=O)[C@H](Cc1ccc(O)cc1)NC(=O)[C@@H](NC(=O)[C@@H]1CCCN1C(=O)[C@H](CCC(=O)O)NC(=O)[C@H](CC(C)C)NC(=O)[C@@H]1CCCN1C(=O)[C@H](C)N)C(C)C)C(=O)N[C@@H](CC(N)=O)C(=O)N[C@@H](CCSC)C(=O)N[C@@H](CC(C)C)C(=O)N[C@H](C(=O)N[C@@H](CCCNC(=N)N)C(=O)N1CCC[C@H]1C(=O)N[C@@H](CCCNC(=N)N)C(=O)N[C@@H](Cc1ccc(O)cc1)C(N)=O)[C@@H](C)O [SEQ ID NO: 24, N-epsilon13-[2-(2-{2-[2-(2-{2-[(S)-4-Carboxy-4-(17-carboxyheptadecanoylamino)butyrylamino]ethoxy}ethoxy)acetylamino]-ethoxy}ethoxy)acetyl][Lys13]hPP(1-36)] (H-APLEPVYPGDNAK([AEEA-AEEA-γGlu-C18 diacid])PEQMAQYAADLRRYINMLTRPRY-NH2; N-terminus and C-terminus assumed) gave a half-life (20 nmol/kg) of 3.5 h.
With CC[C@H](C)[C@H](NC(=O)[C@H](Cc1ccc(O)cc1)NC(=O)[C@H](CCCNC(=N)N)NC(=O)[C@H](CCCNC(=N)N)NC(=O)[C@H](CC(C)C)NC(=O)[C@H](CC(=O)O)NC(=O)[C@H](C)NC(=O)[C@H](C)NC(=O)[C@H](Cc1ccc(O)cc1)NC(=O)[C@H](CCC(N)=O)NC(=O)[C@H](C)NC(=O)[C@H](CC(C)C)NC(=O)[C@H](CCC(N)=O)NC(=O)[C@H](CCC(=O)O)NC(=O)[C@@H]1CCCN1C(=O)[C@@H](NC(=O)[C@H](C)NC(=O)[C@H](CC(N)=O)NC(=O)[C@H](CCCCNC(=O)COCCOCCNC(=O)COCCOCCNC(=O)CC[C@H](NC(=O)[C@H]1CC[C@H](CNC(=O)CCCCCCCCCCCCCCCCCCC(=O)O)CC1)C(=O)O)NC(=O)CNC(=O)[C@@H]1CCCN1C(=O)[C@H](Cc1ccc(O)cc1)NC(=O)[C@@H](NC(=O)[C@@H]1CCCN1C(=O)[C@H](CCC(=O)O)NC(=O)[C@H](CC(C)C)NC(=O)[C@@H]1CCCN1)C(C)C)[C@@H](C)O)C(=O)N[C@@H](CC(N)=O)C(=O)N[C@@H](CC(C)C)C(=O)N[C@@H](CC(C)C)C(=O)N[C@H](C(=O)N[C@@H](CCCNC(=N)N)C(=O)N[C@@H](CCC(N)=O)C(=O)N[C@@H](CCCNC(=N)N)C(=O)N[C@@H](Cc1ccc(O)cc1)C(N)=O)[C@@H](C)O [SEQ ID NO: 39, N-epsilon10-[2-(2-{2-[2-(2-{2-[(S)-4-Carboxy-4-({trans-4-[(19-carboxynonadecanoylamino)methyl]cyclohexanecarbonyl}amino)butyrylamino]-ethoxy}ethoxy)acetylamino]ethoxy}ethoxy)acetyl][Lys10,Leu17,Leu30,Gln34]hPP2-36] (H-PLEPVYPGK([AEEA-AEEA-γGlu-Trx-C20 diacid])NATPEQLAQYAADLRRYINLLTRQRY-NH2; N-terminus and C-terminus assumed) the half-life (in vivo, 4 nmol/kg) was 32 h.

From patent US20110275559A1, “Long-Acting Y2 and/or Y4 Receptor Agonists” (Novo Nordisk A/S, priority 2008, published 2011)
